How the values were obtained:
Human PBMCs [1] = experiment: CCL8 and IFNγ release from human PBMC incubated with IL-12 and IL-33; assay type: cell-based; set-up: key to Intensity of specific cytokine inhibition, IFNγ / Intensity of specific cytokine inhibition, CCL-8: −: no inhibition; +: weak; ++: moderate; +++: strong inhibition
Procedure: (§1) Human PBMCs (4×10^5 per group, Ixcells) were incubated with IL-2 (10 unit/mL, PeproTech) and various alarmin/alarmin combinations to mimic the pro-inflammatory cytokines release during allergic diseases. For IL-5 and IL-13 releases, PBMCs were incubated with IL-2 and three alarmins (all 10 ng/ml) for three days. For CCL17 release, PBMC was incubated with TSLP (10 ng/ml) for 1 day. For CCL8 and IFNγ releases, PBMCs were incubated with IL-12 (10 ng/ml, Sino Biological) and IL-33 (10 ng/ml) for 1 day. Cells were pretreated with SM17 (5 μg/ml) or IgG4 isotype control (5 μg/ml) for an hour before the addition of cytokines.
(§2) Supernatants were collected and the cytokine concentration were measured by ELISA kits (R&D systems). These established assays were used to test the potency of and SM17 and bsBps. […] Results were expressed in absolute amount in pg/ml.
(§3) SM17, three different SM17-anti-IL33 bsBps and three different SM17-anti-TSLP bsBps (all at 5 μg/ml) were added to human PBMC cultures under conditions that shall induce the release of IFNγ, CCL8, CCL17 and IL-5 as described in Example 11 above. The levels of different cytokines and chemotactic factors in supernatant obtained in induced PBMC were evaluated using standard ELISA methods.

Human PBMCs [2] = experiment: IL-5 and IL-13 release from human PBMC incubated with IL-2 and three alarmins; assay type: cell-based; conditions: SM17 5 μg/ml; IL-2 and three alarmins (10 ng/ml), three days; vs IgG4 isotype control
Procedure: as §1, §2, §3

wild type HEK293 = experiment: Flow cytometry, SM17 binding to wild type HEK293; conditions: SM17 1 μg/ml
Procedure: HEK293 cells (ATCC, Manassas, VA) transfected either with full-length human or rhesus monkey IL-17RB (SinoBiological, Beijing, China) were examined for binding to SM17 following standard protocol for flow cytometry. Wild-type HEK293 stained with IgG4 isotype control (Sino Biological) was used as the negative control and for gating purpose. Briefly, HEK293 cells at a density of 3×10^5 cells were seeded into each well of a 6-well plate. On the next day, human or rhesus Il-17RB full length cDNA were first cloned into pCMV3-untagged expression plasmid through standard molecular cloning technique, and then expression plasmids for human or rhesus IL-17RB were transfected into HEK293 cells by lipofection (Lipofectamine 3000 reagent; Thermo Fisher Scientific). Transfected cells were trypsinized, harvested, and fixed with 4% paraformaldehyde (5 minutes). SM17, or human IgG4 control at 1 μg/ml in washing buffer (3% BSA in PBS) were added to the resuspend cells for incubation at RT for 30 min before Alexa Fluor® 647-conjugated goat anti-human IgG specific antibody (1:2000 dilution in washing buffer) (Jackson ImmunoResearch) was added for flow cytometry analysis using the BD FACSVerse cell analyzer (Becton Dickenson, Franklin Lakes, NJ).

IL-33 = target: T1, IL-33 (Homo sapiens, UniProt O95760); experiment: ELISA, antigen binding specificity of bsBp (IL-33); set-up: key: −: no binding; +: weak; ++: moderate; +++: strong binding; N/A refers to no binding affinity; conditions: 33.5 nM; antigen coated at 2 μg/mL
T1 construct: purchased R&D systems
T1 sequence (O95760 95-270): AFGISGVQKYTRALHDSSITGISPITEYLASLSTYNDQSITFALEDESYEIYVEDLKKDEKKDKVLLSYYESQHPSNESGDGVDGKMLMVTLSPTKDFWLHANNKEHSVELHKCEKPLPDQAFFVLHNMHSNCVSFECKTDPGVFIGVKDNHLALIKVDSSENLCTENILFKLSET
Procedure: Binding specificities of bsBp were evaluated by standard ELISA assays. Briefly, ELISA strips were coated with the respective target antigens, including IL17RB, IL-33, or TSLP (R&D systems) at a final concentration of 2 μg/mL. Bispecific antibodies were added at 33.5 nM to ELISA strips coated with the desired antigen. After incubation under room temperature for 2 hours, ELISA strips were washed five times with PBS. […] No result is provided for SM17-human TSLPR as the yield was too low to be detected.

[3] = test system: OVA-induced murine experimental asthma; experiment: Ovalbumin induced asthma on mice; assay type: in vivo, BALB/c mice
Procedure: Female BALB/c mice were induced with ovalbumin to elicit asthma like symptoms on mice. Briefly, mice were each sensitized with […] of ovalbumin (OVA) emulsified in 1 mg of aluminum hydroxide in a total volume of […] via intraperitoneal (IP) injections on Days 0 and 12. Mice were divided into 6 groups with 8 mice per group. Sensitized mice were exposed to aerosolized 5% OVA in sterile water, 20 minutes/day for six consecutive days (Days 19, 20, 21, 22, 23 and 24). Naïve mice inhaled the atomized water, 20 minutes/day, for six consecutive days. Mice were then i.v. injected with different concentrations of SM17, PBS (control), or dexamethasone (Dex) 4 hours before aerosol challenge, once per day (Day 19 to 24).
On day 25 (24 hours after the last OVA challenge), mice were anesthetized with Telazol® (20-40 mg/kg i.p.) and connected to a computer-controlled ventilator via the tracheal cannula. The time of expiration/inspiration and the respiratory rate were preset at 1.5:1 and 90/min, respectively. After a steady baseline was established, the resistance of the lung (RL) was recorded to evaluate the reaction of mice to a methacholine chloride gradient (0.025 and 0.05 mg/kg body weight); the methacholine chloride was injected into the vena jugulars externa at 5-min intervals via a fine needle. […] BALF from mice sacrificed on Day 25 was retrieved, and inflammatory cell number and the concentrations of inflammatory cytokine from BALF were determined.
Results are presented as means±SEM. One Way ANOVA, Dunnett's Multiple Comparison Test, *: P<0.05; **: P<0.01. Dex=Dexamethasone.

[4] = SM17 5 μg/ml, IL-12 and IL-33 10 ng/ml, 1 day, vs IgG4 isotype control

binding of SM17 to wild type HEK293 (wild type HEK293): ~7% | Intensity of specific antigen binding, IL-33 coated on ELISA strips (IL-33): −
Substance: SM17: humanized anti-IL17RB monoclonal antibody, human IgG4 isotype; HC SEQ ID NO: 32, LC SEQ ID NO: 33
Intensity of specific cytokine inhibition, CCL-8 (Human PBMCs [1]; 5 μg/ml, human PBMC): − | Intensity of specific cytokine inhibition, IFNγ (Human PBMCs [1]; 5 μg/ml, human PBMC): − | CCL8 release (in words) (Human PBMCs [1]; [4]): no inhibitory effects | IFNγ release (in words) (Human PBMCs [1]; [4]): no inhibitory effects | secretion of IL-5 (in words) (Human PBMCs [2]): effectively suppress | secretion of IL-13 (in words) (Human PBMCs [2]): effectively suppress | airway hyperresponsiveness (in words) ([3]; 1 mg/kg or 3 mg/kg SM17 before each OVA aerosolization): mild but not significant abrogation in AHR | airway hyperresponsiveness (in words) ([3]; 5 mg/kg SM17 i.v. once per day, Day 19 to 24, methacholine challenge day 25): prevented airway hyperresponsiveness | number of pulmonary infiltrated eosinophils (in words) ([3]; SM17 at 5 mg/kg): significantly reduce the number of pulmonary infiltrated eosinophils | IL-13 levels in BALF (in words) ([3]; SM17 at 5 mg/kg, Day 25): significantly reduced the IL-13 levels | eosinophil number in BALF (in words) ([3]; SM17 at 5 mg/kg, Day 25): significantly reduced | IL-5 levels in BALF (in words) ([3]; SM17 at 1, 3 and 5 mg/kg, Day 25): significantly reduced the IL-5 levels in BALF

— US20240409647A1, “BISPECIFIC BINDING PROTEINS AGAINST ALARMINS AND USES THEREOF” (SINOMAB BIOSCIENCE LIMITED, priority 2022, published 2024)
